The record followed here is patent US9738660B2, “Selective inhibitors for protein kinases and pharmaceutical composition and use thereof” (National Chiao Tung University, priority 2014, dated 2017).

Molecules are shown by their SMILES. Read-outs that look alike come from different tables or passages of the source.

A word on the remaining activity: it is the signal under treatment as a percentage of the control signal.

What all share (assay): Kinase Profiler, residual kinase activity
What all share (type): biochemical
Details in all cases: read-out: percentage of the remaining kinase activity

One test concerns the target T1, STK11 (Homo sapiens, UniProt Q15831).
T1 sequence (Q15831 1-433): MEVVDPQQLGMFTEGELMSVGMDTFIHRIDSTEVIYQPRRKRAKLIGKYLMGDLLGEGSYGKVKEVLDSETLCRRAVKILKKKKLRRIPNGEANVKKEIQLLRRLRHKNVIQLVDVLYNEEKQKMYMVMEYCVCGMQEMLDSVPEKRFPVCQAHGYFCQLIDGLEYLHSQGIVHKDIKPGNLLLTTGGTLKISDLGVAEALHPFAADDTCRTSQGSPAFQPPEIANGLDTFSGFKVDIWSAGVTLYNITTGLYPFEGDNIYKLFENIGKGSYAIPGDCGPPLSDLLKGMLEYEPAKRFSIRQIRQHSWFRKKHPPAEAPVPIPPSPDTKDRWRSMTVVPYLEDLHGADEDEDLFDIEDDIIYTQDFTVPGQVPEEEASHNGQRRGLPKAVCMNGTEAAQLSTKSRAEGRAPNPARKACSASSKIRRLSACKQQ
T1 sequence (Q7RTN6 1-431 partner): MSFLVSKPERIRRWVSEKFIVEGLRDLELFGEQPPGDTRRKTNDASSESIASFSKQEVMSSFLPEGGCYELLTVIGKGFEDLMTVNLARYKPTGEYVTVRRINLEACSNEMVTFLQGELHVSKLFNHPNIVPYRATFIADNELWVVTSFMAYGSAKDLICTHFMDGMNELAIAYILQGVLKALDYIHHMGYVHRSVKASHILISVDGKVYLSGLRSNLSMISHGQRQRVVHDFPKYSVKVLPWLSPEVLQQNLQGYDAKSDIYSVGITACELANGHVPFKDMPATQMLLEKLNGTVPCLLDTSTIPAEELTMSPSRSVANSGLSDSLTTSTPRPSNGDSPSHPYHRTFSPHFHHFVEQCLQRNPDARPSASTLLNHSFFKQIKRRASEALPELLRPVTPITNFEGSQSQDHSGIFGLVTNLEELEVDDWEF
T1 sequence (Q9Y376 1-341 partner): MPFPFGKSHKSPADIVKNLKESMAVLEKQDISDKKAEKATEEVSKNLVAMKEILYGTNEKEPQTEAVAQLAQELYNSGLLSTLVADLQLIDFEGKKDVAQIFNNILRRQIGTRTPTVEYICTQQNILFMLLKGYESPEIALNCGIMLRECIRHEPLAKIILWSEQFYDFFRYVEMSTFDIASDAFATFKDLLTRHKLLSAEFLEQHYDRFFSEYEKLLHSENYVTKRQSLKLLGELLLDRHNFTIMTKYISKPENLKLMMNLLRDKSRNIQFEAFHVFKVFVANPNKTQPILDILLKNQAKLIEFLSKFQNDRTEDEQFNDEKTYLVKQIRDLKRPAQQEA
The source says:
(§1) Kinase Profiler services provided by […]. (http://www.reactionbiology.com) were used to analyze the data of the 9 type-S protein kinase inhibitors against the 40 types of protein kinases.

In the next test the target is T2, STK16 (Homo sapiens, UniProt O75716).
T2 construct: purchased Research Biology Corp. (http://www.reactionbiology.com)
T2 sequence (O75716 whole entry): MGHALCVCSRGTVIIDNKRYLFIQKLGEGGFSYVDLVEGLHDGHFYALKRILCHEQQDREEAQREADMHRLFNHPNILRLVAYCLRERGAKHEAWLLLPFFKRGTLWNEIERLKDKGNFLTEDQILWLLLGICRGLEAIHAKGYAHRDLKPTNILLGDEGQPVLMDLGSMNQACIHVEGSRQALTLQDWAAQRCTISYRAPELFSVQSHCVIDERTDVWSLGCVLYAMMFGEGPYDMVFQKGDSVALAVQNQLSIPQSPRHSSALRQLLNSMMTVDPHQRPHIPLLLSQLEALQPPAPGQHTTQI
Excerpt: as §1

The target in another test is PIM1 (Homo sapiens, UniProt P11309).
PIM1, sequence (P11309 whole entry): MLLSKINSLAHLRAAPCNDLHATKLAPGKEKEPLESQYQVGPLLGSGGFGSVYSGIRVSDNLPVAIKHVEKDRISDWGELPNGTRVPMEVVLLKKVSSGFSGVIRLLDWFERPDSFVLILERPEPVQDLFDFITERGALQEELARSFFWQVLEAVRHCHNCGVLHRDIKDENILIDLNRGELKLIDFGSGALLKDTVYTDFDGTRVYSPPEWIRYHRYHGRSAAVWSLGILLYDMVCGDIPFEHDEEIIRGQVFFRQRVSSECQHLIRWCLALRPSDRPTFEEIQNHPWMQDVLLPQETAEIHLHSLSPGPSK
Excerpt: as §1

For a further test, the target named is BTK (Homo sapiens, UniProt Q06187).
BTK, sequence (Q06187 whole entry): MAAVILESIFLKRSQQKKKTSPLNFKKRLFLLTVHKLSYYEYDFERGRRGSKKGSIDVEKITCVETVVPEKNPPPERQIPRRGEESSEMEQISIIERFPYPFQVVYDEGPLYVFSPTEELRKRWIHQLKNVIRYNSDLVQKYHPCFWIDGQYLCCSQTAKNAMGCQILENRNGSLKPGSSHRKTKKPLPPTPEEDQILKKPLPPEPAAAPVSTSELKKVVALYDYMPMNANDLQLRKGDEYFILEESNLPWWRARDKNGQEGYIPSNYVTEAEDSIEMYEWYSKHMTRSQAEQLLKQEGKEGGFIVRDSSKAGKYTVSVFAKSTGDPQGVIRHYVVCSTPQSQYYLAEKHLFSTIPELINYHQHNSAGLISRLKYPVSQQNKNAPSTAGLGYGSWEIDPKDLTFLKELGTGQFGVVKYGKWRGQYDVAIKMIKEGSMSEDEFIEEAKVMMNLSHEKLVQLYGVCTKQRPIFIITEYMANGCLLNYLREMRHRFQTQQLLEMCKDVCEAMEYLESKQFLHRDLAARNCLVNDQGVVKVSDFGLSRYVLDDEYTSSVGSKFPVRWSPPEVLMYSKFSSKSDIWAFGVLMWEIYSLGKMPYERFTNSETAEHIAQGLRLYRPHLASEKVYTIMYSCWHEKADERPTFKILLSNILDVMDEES
Excerpt: as §1

In the next test the target is PAK4 (Homo sapiens, UniProt O96013).
PAK4, sequence (O96013 whole entry): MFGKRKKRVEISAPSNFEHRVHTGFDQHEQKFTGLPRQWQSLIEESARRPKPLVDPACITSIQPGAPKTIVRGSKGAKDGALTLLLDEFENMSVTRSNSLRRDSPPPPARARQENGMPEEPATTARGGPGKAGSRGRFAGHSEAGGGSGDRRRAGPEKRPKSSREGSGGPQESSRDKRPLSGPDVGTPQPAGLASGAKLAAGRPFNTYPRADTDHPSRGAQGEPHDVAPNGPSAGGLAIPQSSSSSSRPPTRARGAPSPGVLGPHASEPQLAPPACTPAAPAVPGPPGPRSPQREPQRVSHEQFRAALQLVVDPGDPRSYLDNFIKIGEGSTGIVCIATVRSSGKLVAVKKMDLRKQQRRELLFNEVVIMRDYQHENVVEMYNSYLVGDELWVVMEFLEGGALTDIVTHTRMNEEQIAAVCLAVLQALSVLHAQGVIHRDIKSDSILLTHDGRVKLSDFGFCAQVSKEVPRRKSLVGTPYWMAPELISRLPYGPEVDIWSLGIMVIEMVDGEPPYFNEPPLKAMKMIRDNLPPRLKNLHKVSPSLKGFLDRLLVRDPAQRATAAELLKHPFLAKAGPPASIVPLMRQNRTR
Excerpt: as §1

The target of a further test is GSK3B (Homo sapiens, UniProt P49841).
GSK3B, sequence (P49841 whole entry): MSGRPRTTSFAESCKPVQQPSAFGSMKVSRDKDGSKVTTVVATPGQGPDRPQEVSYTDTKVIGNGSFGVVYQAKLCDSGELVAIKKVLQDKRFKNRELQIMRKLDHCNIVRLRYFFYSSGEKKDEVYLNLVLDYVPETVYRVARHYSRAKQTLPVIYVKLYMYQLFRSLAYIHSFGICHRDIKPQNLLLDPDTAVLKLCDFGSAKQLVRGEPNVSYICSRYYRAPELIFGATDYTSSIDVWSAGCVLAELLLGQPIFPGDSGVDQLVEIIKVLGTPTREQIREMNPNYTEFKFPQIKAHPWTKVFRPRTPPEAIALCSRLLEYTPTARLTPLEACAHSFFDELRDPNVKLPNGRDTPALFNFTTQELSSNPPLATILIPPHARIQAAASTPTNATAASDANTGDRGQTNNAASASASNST
Excerpt: as §1

Another test has as its target T3, MAP2K1 (Homo sapiens, UniProt Q02750).
T3 construct: purchased Research Biology Corp. (http://www.reactionbiology.com)
Excerpt: as §1

In another test the target is DAPK1 (Homo sapiens, UniProt P53355).
DAPK1, sequence (P53355 whole entry): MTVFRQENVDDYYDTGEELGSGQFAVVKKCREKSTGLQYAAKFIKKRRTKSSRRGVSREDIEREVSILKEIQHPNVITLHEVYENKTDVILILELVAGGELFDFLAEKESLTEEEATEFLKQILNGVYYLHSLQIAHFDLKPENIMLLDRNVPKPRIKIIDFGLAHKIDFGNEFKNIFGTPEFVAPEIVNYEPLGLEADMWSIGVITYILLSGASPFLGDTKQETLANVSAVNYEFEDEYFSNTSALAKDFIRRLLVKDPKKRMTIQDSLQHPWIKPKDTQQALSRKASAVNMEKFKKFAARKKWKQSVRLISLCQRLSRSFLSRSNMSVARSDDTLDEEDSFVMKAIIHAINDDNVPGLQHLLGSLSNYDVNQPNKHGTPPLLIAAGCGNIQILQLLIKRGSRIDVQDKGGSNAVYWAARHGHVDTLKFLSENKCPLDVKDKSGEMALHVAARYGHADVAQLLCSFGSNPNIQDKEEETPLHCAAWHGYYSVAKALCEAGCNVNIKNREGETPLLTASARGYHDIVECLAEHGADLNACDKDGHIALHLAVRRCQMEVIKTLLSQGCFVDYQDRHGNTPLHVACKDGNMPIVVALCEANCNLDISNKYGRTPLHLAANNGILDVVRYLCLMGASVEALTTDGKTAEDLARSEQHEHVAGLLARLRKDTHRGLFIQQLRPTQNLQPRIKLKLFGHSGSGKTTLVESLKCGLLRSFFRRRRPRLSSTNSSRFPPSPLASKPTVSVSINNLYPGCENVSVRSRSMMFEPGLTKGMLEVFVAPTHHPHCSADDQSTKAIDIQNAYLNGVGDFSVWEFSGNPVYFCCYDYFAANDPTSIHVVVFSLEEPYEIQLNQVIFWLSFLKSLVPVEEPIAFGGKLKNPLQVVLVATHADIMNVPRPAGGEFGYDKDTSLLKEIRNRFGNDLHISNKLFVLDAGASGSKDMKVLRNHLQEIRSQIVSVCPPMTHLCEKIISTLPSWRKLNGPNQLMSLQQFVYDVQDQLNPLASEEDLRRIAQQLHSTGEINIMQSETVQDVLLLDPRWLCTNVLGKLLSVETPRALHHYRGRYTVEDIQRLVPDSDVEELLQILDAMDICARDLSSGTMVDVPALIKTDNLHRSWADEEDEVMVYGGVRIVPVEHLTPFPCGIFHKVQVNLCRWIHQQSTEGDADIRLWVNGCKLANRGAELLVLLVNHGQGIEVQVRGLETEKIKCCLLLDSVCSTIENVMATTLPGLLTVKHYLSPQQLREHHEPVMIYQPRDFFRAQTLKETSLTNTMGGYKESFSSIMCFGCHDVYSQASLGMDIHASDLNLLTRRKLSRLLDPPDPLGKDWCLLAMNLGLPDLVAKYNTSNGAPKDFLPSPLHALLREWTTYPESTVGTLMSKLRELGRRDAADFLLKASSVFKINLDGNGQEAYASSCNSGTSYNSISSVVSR
Excerpt: as §1

In the next test the target is T4, MERTK (Homo sapiens, UniProt Q12866).
T4 sequence (Q12866 21-999): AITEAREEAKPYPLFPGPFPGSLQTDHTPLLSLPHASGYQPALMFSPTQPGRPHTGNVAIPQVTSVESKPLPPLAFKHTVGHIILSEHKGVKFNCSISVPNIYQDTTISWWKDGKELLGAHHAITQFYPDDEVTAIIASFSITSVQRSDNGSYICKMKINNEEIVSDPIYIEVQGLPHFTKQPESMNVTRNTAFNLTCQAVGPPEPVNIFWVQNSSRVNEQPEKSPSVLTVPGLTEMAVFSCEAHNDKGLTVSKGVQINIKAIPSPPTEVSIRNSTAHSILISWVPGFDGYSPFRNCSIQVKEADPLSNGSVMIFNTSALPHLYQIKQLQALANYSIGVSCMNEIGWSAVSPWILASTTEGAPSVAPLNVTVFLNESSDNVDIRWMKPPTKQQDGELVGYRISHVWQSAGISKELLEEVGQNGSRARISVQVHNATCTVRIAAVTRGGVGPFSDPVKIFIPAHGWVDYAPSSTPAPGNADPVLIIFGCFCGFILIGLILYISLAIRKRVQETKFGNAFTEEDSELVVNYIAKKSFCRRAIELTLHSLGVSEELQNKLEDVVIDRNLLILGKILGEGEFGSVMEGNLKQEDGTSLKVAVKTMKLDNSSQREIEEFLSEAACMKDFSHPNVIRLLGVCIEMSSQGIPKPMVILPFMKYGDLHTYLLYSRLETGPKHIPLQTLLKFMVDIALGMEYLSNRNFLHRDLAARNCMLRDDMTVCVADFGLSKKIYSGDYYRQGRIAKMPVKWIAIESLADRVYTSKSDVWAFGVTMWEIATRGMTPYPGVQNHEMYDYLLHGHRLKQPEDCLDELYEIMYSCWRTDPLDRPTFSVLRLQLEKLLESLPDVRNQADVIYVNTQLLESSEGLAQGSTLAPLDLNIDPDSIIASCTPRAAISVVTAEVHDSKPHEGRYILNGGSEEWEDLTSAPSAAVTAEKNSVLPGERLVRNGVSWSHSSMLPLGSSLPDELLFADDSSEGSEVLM
Excerpt: as §1

T3 sequence (Q02750 whole entry): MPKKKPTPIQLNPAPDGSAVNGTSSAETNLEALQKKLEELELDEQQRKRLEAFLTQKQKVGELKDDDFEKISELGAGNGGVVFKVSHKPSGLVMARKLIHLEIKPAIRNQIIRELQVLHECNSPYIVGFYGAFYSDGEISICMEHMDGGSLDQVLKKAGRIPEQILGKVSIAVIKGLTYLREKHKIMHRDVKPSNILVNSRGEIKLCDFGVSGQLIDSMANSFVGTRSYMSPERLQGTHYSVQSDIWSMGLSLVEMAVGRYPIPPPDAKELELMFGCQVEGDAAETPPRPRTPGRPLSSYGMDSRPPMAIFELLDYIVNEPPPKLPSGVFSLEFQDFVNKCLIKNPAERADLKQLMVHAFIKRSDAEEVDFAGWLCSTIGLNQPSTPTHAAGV

`COC1C(N(C)C(=O)C(N)CCC(=O)OC(C)(C)C)CC2OC1(C)n1c3ccccc3c3c4c(c5c6ccccc6n2c5c31)C(=O)NC4` (centres unmarked) [Compound 6]: the remaining activity at 0.5 µM amounted to 104% at STK11 (STK11, inhibitor at 500 nM); 94% on STK16 (STK16, inhibitor at 500 nM); 43% at PIM1 (PIM1, inhibitor at 500 nM); 43.6% at BTK (BTK, inhibitor at 500 nM); 80.8% at PAK4 (PAK4, inhibitor at 500 nM); 79.7% on GSK3B (GSK3B, inhibitor at 500 nM). The remaining activity at 0.5 µM amounted to 101% at MAP2K1 (MAP2K1, inhibitor at 500 nM); 101% on DAPK1 (DAPK1, inhibitor at 500 nM); 85.2% at MERTK (MERTK, inhibitor at 500 nM).
As for `COC1C(N(C)CCOc2cccc([N+](=O)[O-])c2)CC2OC1(C)n1c3ccccc3c3c4c(c5c6ccccc6n2c5c31)C(=O)NC4` (centres unmarked) [Compound 8], the remaining activity at 0.5 µM was determined as 101% at STK11; 94% at STK16; 24.6% on PIM1; 53.9% on BTK; 99.9% on PAK4; 51.8% at GSK3B. For the same compound, the remaining activity at 0.5 µM came to 72% on MAP2K1, 89.8% at DAPK1 and 63.1% at MERTK.
Turning to `COC1C(N(C)C(=O)C(N)Cc2c[nH]cn2)CC2OC1(C)n1c3ccccc3c3c4c(c5c6ccccc6n2c5c31)C(=O)NC4` (centres unmarked) [Compound 1], the remaining activity at 0.5 µM on STK11 (STK11, inhibitor at 500 nM) came to 88.7%; on STK16 (STK16, inhibitor at 500 nM) it was 59%; on PIM1 (PIM1, inhibitor at 500 nM) it was 2.4%; on BTK (BTK, inhibitor at 500 nM), 13.9%; at PAK4 (PAK4, inhibitor at 500 nM), 40.2%; on GSK3B (GSK3B, inhibitor at 500 nM), 17.9%. Also, the remaining activity at 0.5 µM at MAP2K1 (MAP2K1, inhibitor at 500 nM) came to 79.8%; at DAPK1 (DAPK1, inhibitor at 500 nM), 26%; at MERTK (MERTK, inhibitor at 500 nM) it was 26.7%.
`COC1C(N(C)C(=O)C(N)CCC(=O)O)CC2OC1(C)n1c3ccccc3c3c4c(c5c6ccccc6n2c5c31)C(=O)NC4` (centres unmarked) [Compound 7]: the remaining activity at 0.5 µM at STK11 (STK11, inhibitor at 500 nM) turned out to be 79.9%; on STK16 (STK16, inhibitor at 500 nM) it was 51.6%; at PIM1 (PIM1, inhibitor at 500 nM) it was 2.5%; on BTK (BTK, inhibitor at 500 nM), 11.9%; on PAK4 (PAK4, inhibitor at 500 nM) it was 38.4%; at GSK3B (GSK3B, inhibitor at 500 nM) it was 9.6%. Also, the remaining activity at 0.5 µM on MAP2K1 (MAP2K1, inhibitor at 500 nM) amounted to 74.1%; at DAPK1 (DAPK1, inhibitor at 500 nM), 26.2%; at MERTK (MERTK, inhibitor at 500 nM) it was 40%.
Regarding `COC1C(N(C)C(=O)C(N)Cc2cn(C(=O)OC(C)(C)C)c3ccccc23)CC2OC1(C)n1c3ccccc3c3c4c(c5c6ccccc6n2c5c31)C(=O)NC4` (centres unmarked) [Compound 2], the remaining activity at 0.5 µM at STK11 (STK11, inhibitor at 500 nM) stood at 106%; on STK16 (STK16, inhibitor at 500 nM), 105%; at PIM1 (PIM1, inhibitor at 500 nM), 88.9%; at BTK (BTK, inhibitor at 500 nM) it was 90.6%; on PAK4 (PAK4, inhibitor at 500 nM) it was 110%; on GSK3B (GSK3B, inhibitor at 500 nM), 94.2%. Also, the remaining activity at 0.5 µM on MAP2K1 (MAP2K1, inhibitor at 500 nM) turned out to be 105%; on DAPK1 (DAPK1, inhibitor at 500 nM), 107%; at MERTK (MERTK, inhibitor at 500 nM), 96.8%.
For the compound `COC1C(N(C)C(=O)C(N)Cc2ccc(OC(C)(C)C)cc2)CC2OC1(C)n1c3ccccc3c3c4c(c5c6ccccc6n2c5c31)C(=O)NC4` (centres unmarked) [Compound 4], the remaining activity at 0.5 µM at STK11 (STK11, inhibitor at 500 nM) was determined as 113%; on STK16 (STK16, inhibitor at 500 nM) it was 99.8%; at PIM1 (PIM1, inhibitor at 500 nM), 44.2%; on BTK (BTK, inhibitor at 500 nM), 65.4%; at PAK4 (PAK4, inhibitor at 500 nM) it was 95.2%; at GSK3B (GSK3B, inhibitor at 500 nM), 86.6%. In addition, the remaining activity at 0.5 µM on MAP2K1 (MAP2K1, inhibitor at 500 nM) stood at 110%; at DAPK1 (DAPK1, inhibitor at 500 nM), 96.4%; at MERTK (MERTK, inhibitor at 500 nM), 88.1%.
Regarding `CN[C@@H]1C[C@H]2O[C@@](C)([C@@H]1OC)n1c3ccccc3c3c4c(c5c6ccccc6n2c5c31)C(=O)NC4` [STU, staurosporine, reference compound], the remaining activity at 0.5 µM turned out to be 52.5% on STK16; 0.6% at PIM1; 11.5% at MAP2K1 (MAP2K1, inhibitor at 500 nM); 1.9% at DAPK1; 1.1% on MERTK.
Turning to `COC1C(N(C)C(=O)C(N)Cc2ccc(O)cc2)CC2OC1(C)n1c3ccccc3c3c4c(c5c6ccccc6n2c5c31)C(=O)NC4` (centres unmarked) [Compound 5], the remaining activity at 0.5 µM is 102% at STK11 (STK11, inhibitor at 500 nM); 86.7% on STK16 (STK16, inhibitor at 500 nM); 3% on PIM1 (PIM1, inhibitor at 500 nM); 37.8% on BTK (BTK, inhibitor at 500 nM); 53.3% at PAK4 (PAK4, inhibitor at 500 nM); 29.4% on GSK3B (GSK3B, inhibitor at 500 nM). For the same compound, the remaining activity at 0.5 µM on MAP2K1 (MAP2K1, inhibitor at 500 nM) came to 103%; on DAPK1 (DAPK1, inhibitor at 500 nM), 105%; on MERTK (MERTK, inhibitor at 500 nM) it was 69.2%.
Consider `COC1C(N(C)Cc2ccc(-c3ccccc3)cc2)CC2OC1(C)n1c3ccccc3c3c4c(c5c6ccccc6n2c5c31)C(=O)NC4` (centres unmarked) [Compound 9], for which the remaining activity at 0.5 µM on STK11 (STK11, inhibitor at 500 nM) stood at 91.9%; on STK16 (STK16, inhibitor at 500 nM) it was 103%; on PIM1 (PIM1, inhibitor at 500 nM), 21.8%; at BTK (BTK, inhibitor at 500 nM), 55.8%; at PAK4 (PAK4, inhibitor at 500 nM), 91.8%; on GSK3B (GSK3B, inhibitor at 500 nM) it was 46.6%. In addition, the remaining activity at 0.5 µM on MAP2K1 (MAP2K1, inhibitor at 500 nM) came out at 66.1%; at DAPK1 (DAPK1, inhibitor at 500 nM) it was 116%; at MERTK (MERTK, inhibitor at 500 nM), 52.3%.
